Measured values reported in US20120121708A1 (National Taiwan University, priority 2010, published 2012).

Key:
[1] = dissolution rate analysis by dissolution tester (Weibull model); assay type: physicochemical
Procedure: The microparticle morphology and size are detected by the scanning electron microscopy (SEM). The particle size distribution (PSD) is analyzed by the image analysis software “Image J”. The crystal properties are analyzed by the X-Ray diffractometer. The changes in the crystal form are detected by the differential scanning calorimetry (DSC). […] The analyses of the dissolution rate are performed by the dissolution tester.

[2] = background statement; cited from earlier work

- dissolution rate coefficient [1]: 0.0626 min⁻¹
Structure (SMILES): CC(=O)Nc1nnc(S(N)(=O)=O)s1 [acetazolamide bulk drug, acetazolamide]
- particle size of commercial acetazolamide drug [2]: about 20 μm
